Experimental data taken from US6562381B2, “(+)-Cycloolivil as antioxidant obtained from natural source namely stereospermum personatum” (Council of Scientific and Industrial Research, priority 2001, dated 2003).

Assays:
[1] = known activity, Chem. Pharm. Bull, 1986, 34, 3514-17; cited from earlier work
[2] = In vitro free radical (DPPH) scavenging antioxidant potency; type: biochemical; conditions: for 50% Radical scavenging concentration: DPPH radical, tris-HCl buffer pH 7.4, 45 minutes in dark, absorbency at 517 nm, triplicate
Experimental: Antioxidant activity of the compounds was tested for its capacity/potency to scavenge most widely used free radical, 1,1-diphenyl-2-picryl hyrazyl radical (DPPH). […] 200 μl of test compounds were reconstituted to 1 ml in tris-HCl buffer (pH 7.4). […] After incubation for 45 minutes in dark, the absorbency at 517 nm was recorded. Percent radical scavenging activity was calculated accordingly. All the readings were taken in triplicate.

[3] = tested on: Cyclic AMP phosphodiesterase; conditions: known activity, Chem. Pharm. Bull, 1981, 29, 3586-92; cited from earlier work

Structure (SMILES) | Ca^2+ antagonist activity [1] | 50% Radical scavenging concentration [2] [µg/mL] | Antioxidant activity compared with reference drugs Probucol and alpha-tocopherol ([2]; comparison in words) | Cyclic AMP phosphodiesterase inhibition [3]
COc1cc([C@H]2c3cc(O)c(OC)cc3C[C@@](O)(CO)[C@@H]2CO)ccc1O [(+)-Cycloolivil] | Ca^2+ antagonist activity | 21.74 | better than the above mentioned reference drugs | inhibition
Cc1c(C)c2c(c(C)c1O)CCC(C)(CCCC(C)CCCC(C)CCCC(C)C)O2 (stereo not drawn) [DL α-Tocopherol, reference compound] |  | 47.80 |  | 
